Data: publication PMC11233931, “Remodeling tumor‐associated macrophage for anti‐cancer effects by rational design of irreversible inhibition of mitogen‐activated protein kinase‐activated protein kinase 2” (MedComm, 2024)

Columns and labels:
Assay in all cases: Eurofins kinase selectivity profile against 380 other human recombinant kinases (Table S2)
Type in all cases: biochemical
[1] = biological target: T1, 380 human recombinant protein kinases (Homo sapiens, UniProt P07949); details: Ret(h), read-out: Inhibition rate
T1 construct: purchased Eurofins (Celle Lévescault)
Summary of the method: (§1)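 Profiling against 380 human recombinant kinases carried out by Eurofins at various compound concentrations.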

[2] = biological target: T2, 380 human recombinant protein kinases (Homo sapiens, UniProt Q13315); details: ATM(h), read-out: Inhibition rate (%)
T2 construct: purchased Eurofins (Celle Lévescault)
Summary of the method: as §1

[3] = biological target: T3, 380 human recombinant protein kinases (Homo sapiens, UniProt P09619); details: PDGFRβ(h), read-out: Inhibition rate
T3 construct: purchased Eurofins (Celle Lévescault)
Summary of the method: as §1

[4] = biological target: T4, 380 human recombinant protein kinases (Homo sapiens, UniProt P42681); details: Txk(h), read-out: Inhibition rate (%)
T4 construct: purchased Eurofins (Celle Lévescault)
T4 sequence (P42681 1-527): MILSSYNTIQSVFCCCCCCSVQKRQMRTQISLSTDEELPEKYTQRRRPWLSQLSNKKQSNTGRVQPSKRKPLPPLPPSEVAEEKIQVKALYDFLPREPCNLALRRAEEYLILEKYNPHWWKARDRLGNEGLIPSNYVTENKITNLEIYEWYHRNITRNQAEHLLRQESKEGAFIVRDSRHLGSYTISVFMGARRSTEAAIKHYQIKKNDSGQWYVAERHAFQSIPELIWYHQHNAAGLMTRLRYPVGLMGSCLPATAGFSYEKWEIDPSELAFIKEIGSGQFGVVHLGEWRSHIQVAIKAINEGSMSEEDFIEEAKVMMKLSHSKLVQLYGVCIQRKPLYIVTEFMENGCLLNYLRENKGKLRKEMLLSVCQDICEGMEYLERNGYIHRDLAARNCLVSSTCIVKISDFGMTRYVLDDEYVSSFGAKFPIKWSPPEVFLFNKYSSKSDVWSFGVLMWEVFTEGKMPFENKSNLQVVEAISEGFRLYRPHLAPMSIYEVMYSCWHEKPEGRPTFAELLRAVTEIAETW
Summary of the method: as §1

[5] = biological target: T5, 380 human recombinant protein kinases (Homo sapiens, UniProt P00519, M351T); details: Abl (M351T)(h), read-out: Inhibition rate
T5 construct: purchased Eurofins (Celle Lévescault)
Summary of the method: as §1

[6] = biological target: T6, 380 human recombinant protein kinases (Homo sapiens, UniProt P50613); details: CDK7/cyclinH/MAT1(h), read-out: Inhibition rate
T6 construct: purchased Eurofins (Celle Lévescault)
Summary of the method: as §1

[7] = biological target: T7, 380 human recombinant protein kinases (Homo sapiens, UniProt Q02779); details: MLK2(h), read-out: Inhibition rate
T7 construct: purchased Eurofins (Celle Lévescault)
Summary of the method: as §1

[8] = biological target: T8, 380 human recombinant protein kinases (Homo sapiens, UniProt P06241); details: Fyn(h), read-out: Inhibition rate
T8 construct: purchased Eurofins (Celle Lévescault)
Summary of the method: as §1

[9] = biological target: T9, 380 human recombinant protein kinases (Homo sapiens, UniProt Q9P1W9); details: Pim-2(h), read-out: Inhibition rate
T9 construct: purchased Eurofins (Celle Lévescault)
Summary of the method: as §1

[10] = biological target: T10, 380 human recombinant protein kinases (Homo sapiens, UniProt Q13546); details: RIPK1(h), read-out: Inhibition rate
T10 construct: purchased Eurofins (Celle Lévescault)
T10 sequence (Q13546 1-671): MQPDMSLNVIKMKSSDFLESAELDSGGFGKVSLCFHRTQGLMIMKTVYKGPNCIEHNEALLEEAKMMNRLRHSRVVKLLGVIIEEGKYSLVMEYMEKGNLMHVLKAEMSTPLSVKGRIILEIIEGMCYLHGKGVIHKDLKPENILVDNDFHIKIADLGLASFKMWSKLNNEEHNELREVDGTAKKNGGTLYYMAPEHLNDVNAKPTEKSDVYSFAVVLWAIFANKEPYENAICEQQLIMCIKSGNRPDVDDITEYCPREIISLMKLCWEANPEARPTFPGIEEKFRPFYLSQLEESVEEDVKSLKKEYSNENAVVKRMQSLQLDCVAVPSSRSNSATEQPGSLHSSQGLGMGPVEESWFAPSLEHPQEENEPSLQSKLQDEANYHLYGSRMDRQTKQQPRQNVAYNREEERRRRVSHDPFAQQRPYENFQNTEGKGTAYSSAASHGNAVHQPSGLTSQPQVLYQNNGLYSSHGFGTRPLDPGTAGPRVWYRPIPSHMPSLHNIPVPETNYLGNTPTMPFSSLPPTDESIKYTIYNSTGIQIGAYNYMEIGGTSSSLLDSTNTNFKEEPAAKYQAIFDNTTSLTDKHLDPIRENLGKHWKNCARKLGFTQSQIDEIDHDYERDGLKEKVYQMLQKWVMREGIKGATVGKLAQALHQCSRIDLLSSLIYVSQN
Summary of the method: as §1

[11] = biological target: T11, 380 human recombinant protein kinases (Homo sapiens, UniProt O60674); details: JAK2(h), read-out: Inhibition rate
T11 construct: purchased Eurofins (Celle Lévescault)
Summary of the method: as §1

[12] = biological target: T12, 380 human recombinant protein kinases (Homo sapiens, UniProt Q14680); details: MELK(h), read-out: Inhibition rate
T12 construct: purchased Eurofins (Celle Lévescault)
Summary of the method: as §1

[13] = biological target: T13, 380 human recombinant protein kinases (Homo sapiens, UniProt P78527); details: DNA-PK(h), read-out: Inhibition rate (%)
T13 construct: purchased Eurofins (Celle Lévescault)
Summary of the method: as §1

T3 sequence (P09619 33-1106): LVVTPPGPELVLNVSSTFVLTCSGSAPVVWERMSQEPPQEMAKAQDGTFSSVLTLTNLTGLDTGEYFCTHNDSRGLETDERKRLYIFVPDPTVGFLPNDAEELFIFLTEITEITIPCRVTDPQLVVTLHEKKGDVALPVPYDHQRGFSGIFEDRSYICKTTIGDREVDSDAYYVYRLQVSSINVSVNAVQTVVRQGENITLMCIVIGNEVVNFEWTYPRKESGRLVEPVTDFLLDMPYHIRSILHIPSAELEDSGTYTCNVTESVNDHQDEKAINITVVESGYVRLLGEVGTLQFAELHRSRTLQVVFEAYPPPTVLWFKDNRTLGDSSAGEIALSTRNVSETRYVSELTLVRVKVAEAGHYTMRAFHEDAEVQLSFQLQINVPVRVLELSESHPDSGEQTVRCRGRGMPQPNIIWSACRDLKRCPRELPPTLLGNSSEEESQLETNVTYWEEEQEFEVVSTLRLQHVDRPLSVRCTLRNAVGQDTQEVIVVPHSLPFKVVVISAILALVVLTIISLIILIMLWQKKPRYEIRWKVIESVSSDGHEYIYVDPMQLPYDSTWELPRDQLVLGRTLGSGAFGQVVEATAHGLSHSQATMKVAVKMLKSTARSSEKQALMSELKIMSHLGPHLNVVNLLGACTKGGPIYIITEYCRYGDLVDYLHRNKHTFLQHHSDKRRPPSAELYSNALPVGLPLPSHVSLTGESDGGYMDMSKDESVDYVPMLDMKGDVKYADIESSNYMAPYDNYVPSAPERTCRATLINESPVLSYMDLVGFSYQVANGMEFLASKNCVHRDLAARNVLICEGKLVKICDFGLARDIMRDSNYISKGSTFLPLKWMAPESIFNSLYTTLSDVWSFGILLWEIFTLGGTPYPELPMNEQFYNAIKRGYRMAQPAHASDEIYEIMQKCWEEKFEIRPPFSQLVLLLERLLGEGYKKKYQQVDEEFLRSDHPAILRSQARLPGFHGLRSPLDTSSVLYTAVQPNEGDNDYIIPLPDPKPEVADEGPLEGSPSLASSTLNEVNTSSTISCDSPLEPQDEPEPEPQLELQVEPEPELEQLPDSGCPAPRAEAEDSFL
T9 sequence (Q9P1W9 whole entry): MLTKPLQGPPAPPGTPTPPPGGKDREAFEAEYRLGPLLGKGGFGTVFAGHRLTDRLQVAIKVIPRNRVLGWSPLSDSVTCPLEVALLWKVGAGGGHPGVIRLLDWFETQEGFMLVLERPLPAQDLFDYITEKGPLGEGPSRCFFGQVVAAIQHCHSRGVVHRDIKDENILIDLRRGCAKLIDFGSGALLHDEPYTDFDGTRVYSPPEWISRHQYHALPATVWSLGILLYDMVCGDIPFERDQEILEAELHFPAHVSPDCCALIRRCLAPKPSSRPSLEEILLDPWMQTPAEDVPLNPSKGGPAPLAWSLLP
T1 sequence (P07949 29-1114): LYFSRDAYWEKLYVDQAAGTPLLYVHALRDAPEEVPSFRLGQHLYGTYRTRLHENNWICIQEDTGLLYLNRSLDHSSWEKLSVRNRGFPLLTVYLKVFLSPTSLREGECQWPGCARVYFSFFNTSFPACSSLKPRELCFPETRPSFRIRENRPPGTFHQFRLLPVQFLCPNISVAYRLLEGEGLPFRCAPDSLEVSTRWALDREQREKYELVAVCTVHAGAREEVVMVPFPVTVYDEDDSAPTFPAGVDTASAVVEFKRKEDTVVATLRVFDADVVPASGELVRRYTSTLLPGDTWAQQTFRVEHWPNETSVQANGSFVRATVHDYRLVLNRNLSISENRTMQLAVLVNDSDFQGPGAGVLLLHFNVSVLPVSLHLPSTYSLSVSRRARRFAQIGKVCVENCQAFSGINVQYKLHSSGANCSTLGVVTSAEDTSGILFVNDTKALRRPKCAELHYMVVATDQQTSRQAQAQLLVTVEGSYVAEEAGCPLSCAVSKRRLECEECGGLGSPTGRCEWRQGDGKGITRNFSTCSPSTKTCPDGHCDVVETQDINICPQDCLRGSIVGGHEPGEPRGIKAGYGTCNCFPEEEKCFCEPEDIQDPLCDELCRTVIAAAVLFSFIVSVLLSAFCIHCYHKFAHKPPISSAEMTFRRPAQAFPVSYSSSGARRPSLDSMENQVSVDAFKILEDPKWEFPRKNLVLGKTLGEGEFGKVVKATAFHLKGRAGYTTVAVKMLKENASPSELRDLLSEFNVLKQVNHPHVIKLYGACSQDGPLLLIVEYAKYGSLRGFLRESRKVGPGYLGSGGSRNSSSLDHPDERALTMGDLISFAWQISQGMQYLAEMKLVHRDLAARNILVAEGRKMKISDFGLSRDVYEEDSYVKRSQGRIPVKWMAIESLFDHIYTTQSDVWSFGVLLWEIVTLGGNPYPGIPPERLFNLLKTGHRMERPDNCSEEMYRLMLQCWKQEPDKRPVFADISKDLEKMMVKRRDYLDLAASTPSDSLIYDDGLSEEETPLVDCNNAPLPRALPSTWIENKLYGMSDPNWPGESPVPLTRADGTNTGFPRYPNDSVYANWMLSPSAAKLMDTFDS
T12 sequence (Q14680 whole entry): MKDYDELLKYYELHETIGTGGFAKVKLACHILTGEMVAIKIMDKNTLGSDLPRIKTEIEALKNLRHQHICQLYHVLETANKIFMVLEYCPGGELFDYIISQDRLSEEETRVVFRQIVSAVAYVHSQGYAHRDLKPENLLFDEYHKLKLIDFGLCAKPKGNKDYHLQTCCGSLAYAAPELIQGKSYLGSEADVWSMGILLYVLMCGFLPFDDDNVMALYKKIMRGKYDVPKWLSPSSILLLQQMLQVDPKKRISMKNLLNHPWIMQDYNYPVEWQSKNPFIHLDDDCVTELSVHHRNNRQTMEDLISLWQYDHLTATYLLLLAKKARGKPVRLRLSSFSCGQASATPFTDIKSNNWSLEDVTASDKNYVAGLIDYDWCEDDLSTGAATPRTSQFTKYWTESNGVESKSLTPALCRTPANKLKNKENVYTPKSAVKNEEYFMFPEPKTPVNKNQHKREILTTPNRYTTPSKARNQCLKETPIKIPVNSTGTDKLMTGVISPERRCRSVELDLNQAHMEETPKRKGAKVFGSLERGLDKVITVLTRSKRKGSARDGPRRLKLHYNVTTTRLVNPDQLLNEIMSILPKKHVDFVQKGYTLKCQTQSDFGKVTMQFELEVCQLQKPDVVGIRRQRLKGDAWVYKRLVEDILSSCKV
T6 sequence (P50613 whole entry): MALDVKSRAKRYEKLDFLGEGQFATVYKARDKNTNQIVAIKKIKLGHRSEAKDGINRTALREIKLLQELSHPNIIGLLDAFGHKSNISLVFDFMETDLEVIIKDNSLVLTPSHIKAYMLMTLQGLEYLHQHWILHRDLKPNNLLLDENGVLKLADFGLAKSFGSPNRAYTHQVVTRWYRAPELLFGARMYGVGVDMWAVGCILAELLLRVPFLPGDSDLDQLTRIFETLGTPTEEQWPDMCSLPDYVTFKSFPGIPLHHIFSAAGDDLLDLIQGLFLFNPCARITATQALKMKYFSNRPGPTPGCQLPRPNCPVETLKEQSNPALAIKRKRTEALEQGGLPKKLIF
T7 sequence (Q02779 whole entry): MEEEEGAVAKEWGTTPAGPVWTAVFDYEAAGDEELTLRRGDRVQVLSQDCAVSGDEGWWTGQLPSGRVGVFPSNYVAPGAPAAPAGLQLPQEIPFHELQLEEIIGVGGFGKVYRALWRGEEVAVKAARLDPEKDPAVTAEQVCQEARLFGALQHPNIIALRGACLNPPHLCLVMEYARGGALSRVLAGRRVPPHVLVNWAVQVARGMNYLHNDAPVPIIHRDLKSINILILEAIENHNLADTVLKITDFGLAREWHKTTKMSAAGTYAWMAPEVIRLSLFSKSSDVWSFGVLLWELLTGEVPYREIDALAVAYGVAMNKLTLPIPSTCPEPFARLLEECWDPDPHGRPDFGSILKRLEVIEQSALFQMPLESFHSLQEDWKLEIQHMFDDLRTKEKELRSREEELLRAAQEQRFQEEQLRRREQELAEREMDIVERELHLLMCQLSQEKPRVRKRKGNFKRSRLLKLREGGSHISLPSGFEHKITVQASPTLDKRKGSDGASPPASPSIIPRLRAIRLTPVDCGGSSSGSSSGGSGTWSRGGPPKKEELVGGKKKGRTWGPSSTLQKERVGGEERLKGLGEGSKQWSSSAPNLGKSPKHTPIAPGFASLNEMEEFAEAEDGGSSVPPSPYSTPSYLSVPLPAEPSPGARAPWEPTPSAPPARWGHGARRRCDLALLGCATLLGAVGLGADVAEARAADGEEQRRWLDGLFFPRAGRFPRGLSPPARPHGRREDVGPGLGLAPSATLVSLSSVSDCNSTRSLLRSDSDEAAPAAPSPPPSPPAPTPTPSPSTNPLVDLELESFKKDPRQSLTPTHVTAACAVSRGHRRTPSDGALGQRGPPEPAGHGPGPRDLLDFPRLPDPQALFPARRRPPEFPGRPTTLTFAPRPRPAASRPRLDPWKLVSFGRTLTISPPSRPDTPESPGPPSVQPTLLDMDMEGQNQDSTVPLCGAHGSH
T8 sequence (P06241 whole entry): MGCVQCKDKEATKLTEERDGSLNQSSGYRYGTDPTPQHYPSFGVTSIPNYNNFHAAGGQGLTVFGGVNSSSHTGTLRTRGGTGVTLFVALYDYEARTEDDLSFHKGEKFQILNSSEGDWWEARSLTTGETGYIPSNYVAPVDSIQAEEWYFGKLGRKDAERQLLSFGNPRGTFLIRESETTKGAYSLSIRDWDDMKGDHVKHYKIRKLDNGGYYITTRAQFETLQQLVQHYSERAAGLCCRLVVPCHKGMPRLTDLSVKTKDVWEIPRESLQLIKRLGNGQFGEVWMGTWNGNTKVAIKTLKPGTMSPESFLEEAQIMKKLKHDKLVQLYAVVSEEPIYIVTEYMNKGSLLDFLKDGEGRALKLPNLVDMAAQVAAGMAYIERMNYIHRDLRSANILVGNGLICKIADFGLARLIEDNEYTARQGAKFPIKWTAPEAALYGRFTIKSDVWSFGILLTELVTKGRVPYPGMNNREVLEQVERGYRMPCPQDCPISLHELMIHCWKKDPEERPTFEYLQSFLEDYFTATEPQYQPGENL

C=CC(=O)Nc1cc(-c2cc(-c3cc4c([nH]3)CCNC4=O)ccn2)ccc1OC(F)(F)F [compound 11]
inhibition at 0.01 µM ([1]; 10 nM): 12% | inhibition at 0.1 µM ([1]; 100 nM): 2% | inhibition at 1 µM ([1]; 1000 nM): 1% | inhibition at 0.01 µM ([2]; 10 nM): -3% | inhibition at 0.1 µM ([2]; 100 nM): -6% | inhibition at 1 µM ([2]; 1000 nM): -9% | inhibition at 0.01 µM ([3]; 10 nM): 0% | inhibition at 0.1 µM ([3]; 100 nM): -16% | inhibition at 1 µM ([3]; 1000 nM): -11% | inhibition at 0.01 µM ([4]; 10 nM): -3% | inhibition at 0.1 µM ([4]; 100 nM): 1% | inhibition at 1 µM ([4]; 1000 nM): -1% | inhibition at 0.01 µM ([5]; 10 nM): 9% | inhibition at 0.1 µM ([5]; 100 nM): 2% | inhibition at 1 µM ([5]; 1000 nM): 22% | inhibition at 0.01 µM ([6]; 10 nM): 5% | inhibition at 0.1 µM ([6]; 100 nM): -1% | inhibition at 1 µM ([6]; 1000 nM): -2% | inhibition at 0.01 µM ([7]; 10 nM): -5% | inhibition at 0.1 µM ([7]; 100 nM): 2% | inhibition at 1 µM ([7]; 1000 nM): 10% | inhibition at 0.01 µM ([8]; 10 nM): 0% | inhibition at 0.1 µM ([8]; 100 nM): 0% | inhibition at 1 µM ([8]; 1000 nM): 3% | inhibition at 0.01 µM ([9]; 10 nM): -3% | inhibition at 0.1 µM ([9]; 100 nM): 5% | inhibition at 1 µM ([9]; 1000 nM): 6% | inhibition at 0.01 µM ([10]; 10 nM): -7% | inhibition at 0.1 µM ([10]; 100 nM): -3% | inhibition at 1 µM ([10]; 1000 nM): 3% | inhibition at 0.01 µM ([11]; 10 nM): -6% | inhibition at 0.1 µM ([11]; 100 nM): -10% | inhibition at 1 µM ([11]; 1000 nM): -8% | inhibition at 0.01 µM ([12]; 10 nM): -7% | inhibition at 0.1 µM ([12]; 100 nM): 5% | inhibition at 1 µM ([12]; 1000 nM): 30% | inhibition at 0.01 µM ([13]; 10 nM): -1% | inhibition at 0.1 µM ([13]; 100 nM): 2% | inhibition at 1 µM ([13]; 1000 nM): 3%
